Laboratory results as given in US20250082600A1, “TREATING HAEMATOLOGICAL MALIGNANCIES BY MEANS OF SATRAPLATIN” (PHARMA& SCHWEIZ GMBH, priority 2022, published 2025).

Tests used:
[1] = tested on: MTAP deficient cell lines; test: Satraplatin IC50 plotted against MTAP status; assay type: cell-based, human
Procedure: (§1) Cell lines and reagents. All cell lines were cultured in appropriate media supplemented with 10-15% fetal bovine serum (Cat #FND500, ExCell Bio, China) at a temperature of 37° C., 5% CO2 and 95% humidity. Cell viability was measured using the CTG Luminescent Cell Viability Assay (Promega, Madison, WI, USA) by standard procedures as described below. Satraplatin was purchased from MedChemExpress (Shanghai, PRC) and cisplatin from Qilu Pharm (Jinan, Shandong, PRC), respectively. 1 mM stock solutions of both drugs were established for storage at −20° C. as previously described (5).
(§2) Determination of the half maximal inhibition concentration (IC50). Cells were harvested during the logarithmic growth period and cell numbers counted using Count-star (Inno-Alliance Biotech, USA). Cell density was adjusted to 4.44×10^4 cells/mL with the respective culture medium. […] The test plate was incubated for 72 h in the humidified incubator at 37° C. with 5% CO2, and then evaluated using CTG cell viability assay (Promega). […] Luminescence was recorded using EnVision Multi Label Reader (Perkin Elmer, Richmond, CA, USA).
(§3) Data Analysis. The data were analyzed and visualized using GraphPad Prism 5.0 (GraphPad Software, San Diego, CA, USA) and Think-Cell 11 (Think-Cell Software, Berlin, Germany). […] The absolute IC50 was calculated according to the dose-response curve generated by GraphPad Prism 5.0. […]

BCL2 expression = settings: cited from earlier work
[2] = tested on: hormone refractory prostate cancer patients (HRPC); settings: monotherapy; cited from earlier work
OCI-LY3 cell line = test: CTG cell viability assay, OCI-LY3; assay type: cell-based, human
Procedure: as §1, §2, §3

CTCL cell line HUT78 = test: CTG cell viability assay, HUT78; assay type: cell-based, human
Procedure: as §1, §2, §3

[3] = tested on: lymphoma cell lines harboring gene copy number deletions in the 9p21 locus; test: Satraplatin sensitivity versus DNA copy number deletion; assay type: cell-based, human; settings: MTAP/CDKN2A/CDKN2B/DMRTA1 deletions
Procedure: as §2, with “medium. Then, 90 μL cell suspensions were added in triplicate to a 96-well plate with the final cell density of 4×10^3 cells/well.” for “medium.”, “(Promega). For that purpose, plates were equilibrated at room temperature for approximately 30 min. Then, 50 μL CTG reagent was added to each well.” for “(Promega).”
(§4) Data Analysis. The data were analyzed and visualized using GraphPad Prism 5.0 (GraphPad Software, San Diego, CA, USA) and Think-Cell 11 (Think-Cell Software, Berlin, Germany). […] The formula for calculating the cell survival rate was: Cell survival (%) at Cx=(Cx−M)/(N−M)×100%, Cx being the luminescence signal of cells cultured with any concentration of the test compound, M being the luminescence signal of the blank control (with no cells) and N being the vehicle control with culture medium containing 0.25% (v/v) dimethyl sulfoxide. […]

[4] = tested on: hematological malignancies (n=44) cell lines; test: CTG cell viability assay, hematological malignancy cell lines; assay type: cell-based, human
Procedure: as §1
as §2, with “medium. Then, 90 μL cell suspensions were added in triplicate to a 96-well plate with the final cell density of 4×10^3 cells/well.” for “medium.”, “(Promega). For that purpose, plates were equilibrated at room temperature for approximately 30 min. Then, 50 μL CTG reagent was added to each well.” for “(Promega).”
as §4, with “sulfoxide. The absolute IC50 was calculated according to the dose-response curve generated by GraphPad Prism 5.0.” for “sulfoxide.”

DLBCL cell lines = test: CTG cell viability assay, DLBCL cell lines; assay type: cell-based, human; settings: DLBCL and its respective cell lines
Procedure: as §1, §2, §3

[5] = cited from earlier work
OCI-LY7 cells = test: CTG cell viability assay, OCI-LY7; assay type: cell-based, human
Procedure: as §1, §2, §3

66 cancer cell lines = test: CTG cell viability assay, 66 cancer cell lines (AUC); assay type: cell-based, human; settings: for activity (AUC) in hematological malignancies compared to solid organ cancers: ANOVA p-value=2.3e-08
Procedure: as §1
as §2, with “medium. Then, 90 μL cell suspensions were added in triplicate to a 96-well plate with the final cell density of 4×10^3 cells/well.” for “medium.”, “(Promega). For that purpose, plates were equilibrated at room temperature for approximately 30 min. Then, 50 μL CTG reagent was added to each well.” for “(Promega).”
as §4, with “sulfoxide. The absolute IC50 was calculated according to the dose-response curve generated by GraphPad Prism 5.0.” for “sulfoxide.”

SMILES: CC(=O)[O][Pt]([NH2])([Cl])([Cl])([NH]C1CCCCC1)[O]C(C)=O [satraplatin, bis (acetato) ammine dichloro (cyclohexylamine) platinum (IV)]
- activity in MTAP deleted hematopoietic cell lines [1]: high activity
- effectiveness in contrast to oxaliplatin (BCL2 expression): significantly more effective
- reduction of BCL2 expression (BCL2 expression; independently of P53 mutational status): up to 13 fold
- objective response rate [2]: up to 31%
- cell killing (OCI-LY3 cell line): killed very efficiently
- activity compared with cisplatin (OCI-LY3 cell line; p-value of 0.0006): significantly more active than cisplatin
- IC50 (CTCL cell line HUT78): low-micromolar
- activity on cell lines with 9p21 copy number deletions [3]: more active
- activity grouped by histology ([4]; DLBCL, T-cell lymphoma, MCL, MM and Burkitt lymphoma cell lines): high activity
- IC50 values ([4]; group of hematologic malignancies, 72 h, CTG): low to sub micromolar levels
- activity compared with standard cisplatin ([4]; within the group of hematologic malignancies, p-value=0.009, FIG. 2): significantly more active
- IC50 values (DLBCL cell lines): low micromolar or even sub-molar
- access to the cerebrospinal fluid [5]: access the cerebrospinal fluid at sufficient dose levels
- killing compared to cisplatin (OCI-LY7 cells): significantly superior
- activity (AUC) in hematological malignancies compared to solid organ cancers (66 cancer cell lines): significant higher activity in haematopoietic & lymphoid malignancies
- activity (AUC) in hematological malignancies compared to solid organ cancers (66 cancer cell lines; listed as Satraplatin): significantly more active in hematological malignancies
- median AUC value across all tested cell lines (66 cancer cell lines; area under dose-response curve, 72 h, CTG, FIG. 1): 2.35
